US12630500B2, “Hexasubstituted radialene compounds and applications thereof” (THE UNIVERSITY OF NORTH CAROLINA AT CHARLOTTE, priority 2019, dated 2026)

Key:
[1] = reported catholytes for neutral aqueous RFBs; cited from earlier work
[2] = assay type: physicochemical
Description: (§1) Hexacyano[3] radialene was initially used as a model system to probe the efficacy of hexasubstituted radialenes as redox couples in pH 7 aqueous solutions. A prerequisite for a practical aqueous catholyte is a high oxidation potential that occurs within the electrochemical window of water. The electrochemistry of [C6(CN)6]^2− as a tetrabutylammonium (TBA) salt in organic solvents only. […] Using cyclic voltammetry (CV), it was first established that the one electron oxidation of the dianion to the radical anion occurs at a potential favorable for use as a catholyte for RFBs, 480 mV.
(§2) This value was almost identical to the diffusion coefficients of hydrophilic ferrocene derivatives in neutral pH solutions of NaCl. […] Such chemical stability is essential for durable RFB electrolytes.
Diester compound 3 was selected for further analysis due to its favorable solubility in both redox states and its adequate oxidation potential in water. Electrochemical studies of compound 3 were performed to gauge its stability and galvanostatic cycling performance in aqueous solution. […] This assuages concerns of the possibility of ester hydrolysis. Next, a symmetrical H-cell with a cation-exchange membrane separator was used for aqueous galvanostatic charge-discharge experiments (FIG. 4B). The compound 3 undergoes steady cycling over a period of 12 days (50 cycles). […] The higher relative capacity retention was ascribed to the asymmetry and non-planarity of the diester congener, which helps limit dimerization interactions.

[3] = Conductivity of aqueous solutions; assay type: physicochemical; settings: for Conductivity: first value of the pair; for Conductivity (value in parentheses): not defined in the patent
[4] = Cyclic voltammetry in water (GC working electrode, Ag/AgCl reference); assay type: physicochemical; settings: Randles-Sevcik equation, scan rates 0-700 mV/s
[5] = as above; assay type: physicochemical; settings: for E^ox1/2 / ipc/ipa: in water
Description: FIG. 2A provides cyclic voltammograms of a hexasubstituted radialene dianion ([…]) using a glassy carbon (GC) working electrode, platinum auxiliary electrode, and Ag/AgCl reference electrode measured at various scan rates (10-700 mV/s) in water.
as §1, §2

[6] = Stability in air and thermal stability; assay type: physicochemical
Description: Hexacyano[3] radialene (Na2C6(CN)6), compound 1 in FIG. 3, was synthesized at low temperatures, on a large scale, and in high yield (for example 45 g, 91%). This convenient synthesis uses inexpensive precursors (tetrachlorcyclopropene (TCCP) and malononitrile), reagents (sodium hydride), and solvent (glyme). […] Furthermore, this compound is stable in air, and can be sequentially oxidized in two single-electron transfers. The product of the first oxidation, radical anion the compound ·- is particularly persistent. […] Remarkably, the radical anion is thermally stable to above 180° C. The inherent stability of the compound and persistence of the radical anion ·- signifies that the redox couple is favorable for use in a RFB, a device in which long lifespan is required. Finally, aqueous solutions of the dianion are colorless, while the radical anion produces a deep blue color when dissolved. This is advantageous for visually following the charge-discharge characteristics of proposed RFBs.

[7] = Aqueous solubility by UV/Vis spectroscopy; assay type: physicochemical; settings: for Solubility / Radical Anion Solubility: aqueous; for Solubility: dianionic state (disodium salt); for Radical Anion Solubility: radical anionic state
Method: One nitrile group was systematically substituted at a time in an effort to preserve the favorable oxidation potential of the redox couple. To this end, a series of asymmetric, ester-substituted, [3] radialene species (FIG. 3, Compounds 1-4) were prepared via the zwitterionic synthetic method. The aqueous solubilities of these compounds in both the dianionic and radical anionic states were determined using UV/Vis spectroscopy (Table 1).

Row | SMILES | oxidation potential [1] [mV] | stability in aqueous solutions ([2]; pH 7) | change in peak current height on standing ([2]; solutions of dianion and radical anion left five days) | Conductivity [3] [mS/cm] | Conductivity (value in parentheses) [3] | diffusion coefficient for the electron transfer process [4] | potential of one electron oxidation of dianion to radical anion ([5]; cyclic voltammetry, aqueous pH 7) [mV] | E^ox1/2 [5] [V] | ipc/ipa [5] | stability in air ([6]; dianion compound) | thermal stability of radical anion ([6]; radical anion) | storage of radical anion in air ([6]; radical anion, isolated via chemical oxidation) | Solubility [7] [mM] | Radical Anion Solubility [7] [mM] | solubility in water ([7]; dianion) [mM] | stability of dianion in water [2] | conductivity of aqueous solutions without supporting electrolyte ([3]; 0.1 M, without NaCl) | solubility in water ([7]; disodium salt) [mM]
1 | CC1(C)CC(O)CC(C)(C)N1[O] [4-hydroxy-TEMPO] | 610 |  |  |  |  |  |  |  |  |  |  |  |  |  |  |  |  | 
2 | N#CC(C#N)=C1C([C-](C#N)C#N)=C1[C-](C#N)C#N.[Na+].[Na+] [Compound 1, Hexacyano[3] radialene (Na2C6(CN)6)] |  | stable | no significant changes in peak current height | 13.2 | (0.147) mS/cm | 3.71×10^−6 cm^2/s | 480 | 0.48 | 1.03 | stable in air | above 180 °C | stored in air indefinitely | <100 | <25 | 25 |  |  | 
3 | COC(=O)C(C#N)=C1C([C-](C#N)C#N)=C1[C-](C#N)C#N.[Na+].[Na+] [Compound 2] |  |  |  | 15.7 | (2.36) mS/cm |  |  | 0.4 | 0.97 |  |  |  | 190 | 80 |  |  |  | 
4 | COC(=O)[C-](C#N)C1=C([C-](C#N)C(=O)OC)C1=C(C#N)C#N.[Na+].[Na+] (stereo not drawn) [Compound 3, diester-tetracyano [3] radialene dianion] |  |  |  | 36.7 | (23.2) mS/cm |  |  | 0.35 | 1.06 |  |  |  | 450 | 170 |  | stable in water | sufficiently conductive | 850
5 | COC(=O)C(C#N)=C1C([C-](C#N)C(=O)OC)=C1[C-](C#N)C(=O)OC.[Na+].[Na+] (stereo not drawn) [Compound 4] |  |  |  | 39 | (0.23) mS/cm |  |  | 0.27 | 1.15 |  |  |  | 820 | <25 |  |  |  | 
